This is an account of results in US20240197869A1, “HYPERACTIVATORS OF MAMMALIAN DENDRITIC CELLS” (Corner Therapeutics, Inc., priority 2021, published 2024).

The subject of series [1] is canine peripheral blood mononuclear cells (PBMCs). Kind of series: IL-1β secretion by canine PBMCs (ELISA). It is filed as cell-based. Conditions: stimulus as labelled, no hyperactivating lipid, 2 days. On the procedure:
(§1) Isolation of PBMCs from Whole Blood. PBMCs were isolated from whole blood using density gradient centrifugation with Ficoll-Paque PLUS (Cytivia). Whole blood was diluted 1:1 with PBS, layered on top of Ficoll-Paque PLUS and centrifuged at 1000×g for 30 minutes at room temperature. PBMCs were collected, washed twice in PBS, and incubated with Ack lysis buffer (Lonza) to remove any remaining red blood cells.
(§2) Cell Culture and Stimulation. […] Cells were plated at 1×10^5 (canine cells) or 1×10^6 (human cells) per well in 96-well flat bottom tissue culture plates. Lyophilized Vaccigrade R848 (Invivogen) was reconstituted and diluted according to manufacturer's recommendations and added to cells at a final concentration of 1 μg/mL.
Quantification of Cytokine Secretion. IL-1β secretion from human PBMCs was assessed using one of the following kits: ELISA MAX Deluxe Set Human IL-1β kit (Biolegend), Invitrogen Human IL-1β kit, or the Lumit™ Human IL-1β Immunoassay (Promega). IFNγ secretion from human PBMCs was assessed using the ELISA MAX Deluxe Set Human IFNγ (Biolegend) and TNFα secretion from human PBMCs was assessed using the Human TNFα Uncoated ELISA kit (Invitrogen). […] IL-1β secretion from canine PBMCs was assessed using the Canine IL-1β/IL-1F2 DuoSet ELISA (R&D) according to manufacturer's instructions with the following modifications: i) total sample+buffer volume for incubation was reduced from 100 μL to 50 μL; ii) sample incubation was completed overnight at 4° C. on an orbital shaker. For all ELISAs, absorbance was measured at 450 nm, with a 570 nm correction, using a Spectramax M5e plate reader (Molecular Devices). For Lumit™ assays, luminescence was measured on all wavelengths using a Spectramax M5e plate reader (Molecular Devices) with an integration time of 500 ms. […]

The subject of series [2] is human PBMCs. Kind of series: Cytokine secretion (IL-1β, IFNγ, TNFα) by human PBMCs. To be noted: stimulus as labelled, no hyperactivating lipid, 2 days. The class given is cell-based. On the procedure: as §1, §2
Quantification of Cytokine Secretion. IL-1β secretion from human PBMCs was assessed using one of the following kits: ELISA MAX Deluxe Set Human IL-1β kit (Biolegend), Invitrogen Human IL-1β kit, or the Lumit™ Human IL-1β Immunoassay (Promega). IFNγ secretion from human PBMCs was assessed using the ELISA MAX Deluxe Set Human IFNγ (Biolegend) and TNFα secretion from human PBMCs was assessed using the Human TNFα Uncoated ELISA kit (Invitrogen). ELISAs were performed according to manufacturer's instructions with the following modifications: i) total sample+buffer volume for incubation was reduced from 100 μL to 50 μL; ii) the top standard was prepared at […], with two-fold dilutions to […]; and iii) sample incubation was completed overnight at 4 C on an orbital shaker. Lumit™ assays were performed according to manufacturer's instructions. IL-1β secretion from canine PBMCs was assessed using the Canine IL-1β/IL-1F2 DuoSet ELISA (R&D) according to manufacturer's instructions with the following modifications: i) total sample+buffer volume for incubation was reduced from 100 μL to 50 μL; ii) sample incubation was completed overnight at 4° C. on an orbital shaker. For all ELISAs, absorbance was measured at 450 nm, with a 570 nm correction, using a Spectramax M5e plate reader (Molecular Devices). For Lumit™ assays, luminescence was measured on all wavelengths using a Spectramax M5e plate reader (Molecular Devices) with an integration time of 500 ms. To determine cytokine concentrations in supernatants, sample concentrations were interpolated using a standard curve via 4PL analysis on GraphPad Prism 9 (GraphPad Software). The interpolated results of samples were then adjusted for any dilutions made to the supernatant.

For series [3], the system named is human monocyte-derived dendritic cells (moDCs). Kind of series: DAMP screen: IL-1β secretion by LPS-activated human moDCs (ELISA). The class given is cell-based. On the procedure: Danger-Associated Molecular Pattern (DAMP) Screen.
(§3) Quantification of IL-1beta Secretion. IL-1beta secretion was assessed using the ELISA MAX Deluxe Set Human IL-1beta kit (Biolegend). ELISAs were performed according to manufacturer's instructions with the following modifications: i) total sample volume for incubation was reduced from […] the top standard was prepared at […], with two-fold dilutions to […]; and iii) sample incubation was completed overnight at 4 C on an orbital shaker. […] To determine IL-1beta concentration in supernatants, sample IL-1beta concentrations were interpolated using a standard curve via 4PL analysis on GraphPad Prism 9 (GraphPad Software). The interpolated results of samples were then adjusted for any dilutions made to the supernatant.

Series [4] has the same test system. Description: Lipid titration: IL-1β secretion by LPS-activated human moDCs. The class given is cell-based. To be noted: for Activity Units (AU) ± SD (lipid activity index): reciprocal of lowest concentration giving IL-1β two-fold over LPS x highest IL-1β signal, lipid 1.3-82.5 μM + LPS. As to the method: as §3
The test system is the same in series [5]. Kind of series: DAMP screen: viability of human moDCs (CellTiter-Glo).
Experimental: Danger-Associated Molecular Pattern (DAMP) Screen. After 6 days of differentiation into moDC, cells were collected and counted. Cells were plated at 100,000 cells/well in R10 media in 96-well flat bottom tissue culture-treated plates. LPS, serotype O55:B5 (Enzo Life Sciences) was added to a final concentration of 1 μg/mL in each well. […] Cells were incubated at 37° C., 5% CO2 for two days. Cell cultures were then used for endpoint analyses.
Endpoint Analyses. After culturing moDCs with PAMPs and DAMPs for two days, supernatant and cell samples were collected for analysis.
(§5) Quantification of Cell Viability. Cell viability was assessed by quantifying the presence of ATP as an indicator of metabolically active cells using the CellTiter-Glo Luminescent Cell Viability Assay (Promega). Metabolic activity was assessed following manufacturer's instructions. The CellTiter-Glo reagent was mixed with the cell pellets and remaining supernatant, and transferred to a white, opaque 96-well plate. Luminescence was measured on all wavelengths on a Spectramax iD3 plate reader (Molecular Devices) using an integration time of 500 ms. Percent viability was calculated relative to the control condition of moDCs treated with LPS.
Series [6] has the same test system. Kind of series: Lipid titration: viability of human moDCs (CellTiter-Glo). To be noted: 10.3 μM lipid + LPS 1 μg/mL, 2 days; relative to LPS-treated moDCs; Table 1-5. On the technique in general: In ATP-based viability assays light output follows the ATP content of the culture.
Experimental: Lipid Titration. After 6 days of differentiation into moDC, cells were collected and counted. Cells were replated at 100,000 cells/well in R10 media in 96-well flat bottom tissue culture-treated plates. LPS, serotype 055:B5 (Enzo Life Sciences) was added to a final concentration of 1 μg/mL in each well. After the addition of LPS, lipids were prepared. […] After two days of culture, cell cultures were used for endpoint analyses.
Endpoint Analyses. After culturing moDCs with PAMPs and DAMPs for two days, supernatant and cell samples were collected for analysis. Cells in culture were pelleted by centrifugation at 400×g for 5 min.
as §5
Statistical Analyses. […] For each tested condition, cells from each donor were plated to be tested in triplicate.
The test system is the same in series [7]. Kind of series: PAMP screen: IL-1β secretion by human moDCs with PRR agonist and 22:0 Lyso PC. The class given is cell-based. Conditions: 2 days. On the procedure:
(§4) Pathogen-Associated Molecular Pattern (PAMP) Screen. Innate immune signaling pathway agonists were purchased from Invivogen. Lyophilized stocks were reconstituted and stored according to manufacturer's instructions and at recommended concentrations. […] Innate immune signaling agonists were diluted in R10 media to the manufacturer's recommended working concentration and then added onto cells. 22:0 Lyso PC was then reconstituted from a lyophilized stock in R10 and then further diluted. The lipid was added onto cells at a final concentration of 20 μM. Cells were incubated for 2 days, then cultures were collected for endpoint analyses.
as §3

Series [8] shares this test system. Kind of series: PAMP screen: viability of human moDCs with PRR agonist and 22:0 Lyso PC. It is filed as cell-based. To be noted: 2 days. On the procedure: as §4
Quantification of Cell Viability.

The mark [9] stands for this setting: 41.3 μM lipid + LPS 1 μg/mL, 2 days, Table 1-2.
Setting [10] is: 82.5 μM lipid + LPS, selected lipids, Table 1-3 (repeats Table 1-1).
The mark [11] stands for this setting: 10.3 μM lipid + LPS 1 μg/mL, 2 days, Table 1-5.
Where [12] appears, read: 20.6 μM lipid + LPS, human moDCs, 4 donors, mean (SD in wrapped line below).
[13] abbreviates: 41.3 μM lipid + LPS 1 μg/mL, 2 days, relative to LPS-treated moDCs, Table 1-2.
Where [14] appears, read: 82.5 μM lipid + LPS 1 μg/mL, 2 days, relative to LPS-treated moDCs, Table 1-1.
Setting [15] is: high dose PAMP + 22:0 Lyso PC 20 μM.

Entries after “also recorded” stand apart in the source; their conditions may differ. Residues, ends and D or L forms follow the SMILES beside them. *: point of attachment. X1 = CCCCCCCCCCCCCCCC(=O)OCC(C*)OC(=O)CCCCCCCCCCCCCCC

Regarding `Nc1nc2c(ncn2[C@@H]2O[C@@H]3COP(=O)(O)O[C@H]4[C@@H](O)[C@H](n5cnc6c(N)ncnc65)O[C@@H]4COP(=O)(O)O[C@@H]2[C@@H]3O)c(=O)[nH]1` [2′3′cGAMP, reference compound], the “IL-1β secretion (in words)” value in series [1] is reported as “neither GM-CSF nor 2′3′cGAMP induced significant IL-1β secretion”. Also, in series [2], the “IFNγ secretion, fold change relative to R848 alone (in words)” value is reported as “neither GM-CSF nor 2′3′cGAMP elicited a substantial fold change in IFNγ secretion over R848 alone”.

With `CCCCCCCCCCCCCCCCCCCCCCCC(=O)OC[C@@H](O)COP(=O)([O-])OCC[N+](C)(C)C` [24:0 LYSO PC, 1-lignoceroyl-2-hydroxy-sn-glycero-3-phosphocholine], the IL-1β secretion is 38.8 pg/mL in series [3] (setting [9]), 39.7 pg/mL in series [3] (setting [10]), 36.5 pg/mL in series [4] (setting [11]) and 36.6 pg/mL in series [4] (setting [12]). In addition, the “Relative Viability (%) ± SD” value is 94.6% in series [5] (setting [13]), 96.0% in series [5] (setting [14]), 96.0% in series [5] (setting [10]) and 96.8% in series [6].

With `CCCCCCCCCCCCCCCC(=O)OC[C@H](COP(=O)([O-])OCC[N+](C)(C)C)OC(=O)CCCCCCCC(=O)O` [PAzePC, 1-palmitoyl-2-azelaoyl-sn-glycero-3-phosphocholine, reference compound], the IL-1β secretion in series [3] (setting [9]) came to 191.7 pg/mL; in series [3] (setting [10]), 153.4 pg/mL; in series [4] (setting [11]), 47.9 pg/mL; in series [4] (setting [12]) it was 59.0 pg/mL. Further, the “Activity Units (AU) ± SD (lipid activity index)” value in series [4] worked out at 1.81 ± 1.95 AU. Also, the “Relative Viability (%) ± SD” value is on record as 95.6% in series [5] (setting [13]), 78.8% in series [5] (setting [14]), 78.8% in series [5] (setting [10]) and 98.0% in series [6].

For the compound `CCCCCCCCCCCCCCCC(=O)OC[C@H](COP(=O)([O-])OCC[N+](C)(C)C)OC(=O)CCCC=O` [POVPC, 1-palmitoyl-2-(5′-oxo-valeroyl)-sn-glycero-3-phosphocholine, reference compound], the IL-1β secretion in series [3] (setting [9]) was determined as 121.5 pg/mL; in series [3] (setting [10]) it was 168.5 pg/mL; in series [4] (setting [11]) it was 49.1 pg/mL; in series [4] (setting [12]), 60.6 pg/mL. In addition, in series [4], the “Activity Units (AU) ± SD (lipid activity index)” value came out at 0.00 ± 0.00 AU. Further, the “Relative Viability (%) ± SD” value in series [5] (setting [13]) is 92.1%; in series [5] (setting [14]), 79.5%; in series [5] (setting [10]), 79.5%; in series [6], 97.3%.

For `CCCCCCCCCCCCCCCC(=O)OCC(CSC[C@H](N)C(=O)N[C@@H](CO)C(=O)N[C@@H](CCCCN)C(=O)N[C@@H](CCCCN)C(=O)N[C@@H](CCCCN)C(=O)N[C@@H](CCCCN)C(=O)O)OC(=O)CCCCCCCCCCCCCCC` (stereo partly drawn) [Pam2CSK4] (H-C(X1)SKKKK-OH; N-terminus and C-terminus assumed), the entries for the “IL-1β secretion (in words)” value in series [7] (setting [15]) and in series [7] (low dose PAMP + 22:0 Lyso PC) were “enabled IL-1β secretion; also recorded: induced IL-1β secretion” and “IL-1β secretion was only observed”, respectively. For the same compound, the “cell viability (in words)” value was “little to no effect on cell viability” in series [8] (setting [15]) and “Neither R848 nor Pam2CSK4 at the lower concentrations tested affected cell viability” in series [8] (low dose PAMP + 22:0 Lyso PC).

With `CCOC(=O)C1=Cc2ccc(-c3cccc(C#N)c3)cc2N=C(N)C1` [TL8-506], in series [7] (setting [15]), the “IL-1β secretion (in words)” value was “enabled IL-1β secretion; also recorded: induced IL-1β secretion”.

For “GM-CSF: human GM-CSF (Peprotech), added at 10 ng/mL”, in series [1], the “IL-1β secretion (in words)” value is “neither GM-CSF nor 2′3′cGAMP induced significant IL-1β secretion”. Further, in series [2], the “IFNγ secretion, fold change relative to R848 alone (in words)” value is on record as “neither GM-CSF nor 2′3′cGAMP elicited a substantial fold change in IFNγ secretion over R848 alone” and the “IL-1β secretion (in words)” value is recorded as “did not induce levels of IL-1β secretion from human PBMCs significantly above background levels”.
